Laboratory results taken from PMC9000738, “Diterpenoid Alkaloids Isolated from Delphinium brunonianum and Their Inhibitory Effects on Hepatocytes Lipid Accumulation” (Molecules, 2022).
pIC50: −log10 of the molar value. Read-outs that look alike come from different tables or passages of the source.

Tests used:
[1] = test system: BRL cells; test: Cell viability by CCK-8 assay in BRL cells; format: cell-based; conditions: Rattus norvegicus
Method: The cell viability (%) of the isolated diterpenoid alkaloids in the concentration range of 1–500 μM and the time-effectiveness of them for 24 h and 48 h were evaluated using CCK-8 assay (Figure 4). […] The IC50 values of 15 compounds and positive drug were calculated by SPSS 23.0 software. […] Therefore, through the entire experiments, the maximum concentration of tested diterpenoid alkaloids was limited to 10 μM, a concentration about one-tenth to one-fiftieth of IC50 of them. In addition, optimum dosage of modeling agent (FFA) was also selected as the concentration of 0.5 mM through CCK-8 assay (Figure S77).
Buffalo rat liver (BRL) cells were obtained from the Cell Bank, Committee for Typical Culture Preservation, Chinese Academy of Sciences. BRL cells were cultured in DMEM (containing 10% fetal bovine serum and 1% penicillin/streptomycin) under humidified 5% CO2 (v/v) atmosphere at 37 °C. To determine the cell viability of compounds 1–15, the CCK-8 assay was performed. The fifteen isolated compounds were dissolved in DMSO and diluted 1:1000 in culture medium, respectively. Cells were seeded in 96-well plates (6 × 10^3 cells per well) for 24 h incubation and then treatment with different concentrations (1, 10, 20, 50, 100, 200, and 500 µM) of each compound for 24 h or 48 h, respectively. CCK-8 solution (10% of the total solution) was added to each well, further incubated for 1 h at 37 °C. The absorbance was measured at 450 nm using a Multimode Microplate Reader.

[2] = test system: FFA-induced BRL cells; format: cell-based, rat; conditions: for TG level (TG secretion, lipid accumulation): 10 μM, 24 h, vs. model group; for TG level (TG secretion, lipid accumulation) / TC level / TG level / ALT level / AST level: 0.5 mM FFA-induced BRL cells; for TC level / TG level / ALT level / AST level: 1, 5 or 10 µM; for ALT level / AST level: medium; for inhibitory effects on hepatocytes lipid accumulation: FFA-induced BRL cells, 1, 5 and 10 µM
Method: We selected FFA-induced BRL cells (oleate and palmitate ratio was 2:1) to establish a cellular NAFLD model, which is a widely used method by researchers for studying diseases related to hepatocytes lipid accumulation. The TG secretion was measured to preliminarily evaluate the inhibitory effect on lipid accumulation of 15 isolated alkaloid compounds. […] Compounds 1–15 were tested at a concentration of 10 μM in FFA-induced BRL cells to determine their inhibitory effects on hepatocytes TG secretion (Figure 5). Atorvastatin calcium (ATC) is a statin cholesterol-lowering drug and widely used in the clinical treatment of hyperlipidemia and NAFLD, etc.. Therefore, we used atorvastatin calcium (ATC, 10 µM) as a positive control drug.
BRL cells were grown in 24-well plates until 70–80% confluence. Subsequently, 0.5 mM FFA (oleate and palmitate in a final ratio of 2:1) was applied for 24 h to establish an in vitro model of hepatocytes lipid accumulation in the model group, treated with 0.5 mM FFA combination with 1, 5, or 10 µM isolated compounds for 24 h in alkaloids groups. A portion of 1% bovine serum albumin (BSA) was added in BRL cells of the control group. Then, the medium of each group was collected for determination of ALT and AST levels by commercial kits. After removing the medium, 200 µL of 0.25% trypsin was added to digest the cells in 37 °C for 2 min. Then, 500 µL of DMEM that contained 10% fetal bovine serum (FBS) was added to stop digesting. Cells suspension was centrifuged at 800 r/min for 3 min. After adding 200 µL of ethanol, cells were collected and crushed by ultrasonic cell disruptor at 4 °C. Part of the cell fragmentation solution was used for the determination of cell protein content, the other part was used to determine TG and TC levels by commercial kits according to the manufacturer’s instruction.

[3] = test system: FFA-induced BRL cells; test: Oil red O staining of lipid droplets and quantitative analysis in FFA-induced BRL cells; format: cell-based, rat; conditions: 10 µM, 0.5 mM FFA-induced BRL cells; for fold change of red-stained cell area (quantitative analysis of lipid accumulation): ImageJ, p < 0.001 vs. model group; for lipid accumulation by oil red O staining: vs. model group
Method: Combined with the oil red O staining and quantitative analysis assay, the effect of reducing lipid accumulation of compounds 4, 5, 7, 8, and 12 was performed in FFA-induced BRL cells. […] Quantitative analysis of lipid accumulation was also analyzed by ImageJ 1.8.0 software by calculating the area of red-stained cells (Figure 7C).
BRL cells were plated in 96-well plates until reaching 70–80% confluence and treated with 0.5 mM FFA mixture and the tested compounds for 24 h. Controls were incubated for the same period in complete medium.
After 24 h of incubation, the cells were fixed with 5% formalin solution for 30 min and then incubated with oil red O working solution for 15 min at room temperature. After that, the cells were washed once with 60% isopropanol and three times with water. The nuclei were stained with hematoxylin solution for 2 min at room temperature. Then, the operation of oil red O staining was referred to the previous research. Finally, the red oil droplets were observed using an optical microscope.

[4] = test system: FFA-induced HepG2 cells; test: Oil red O staining in FFA-induced HepG2 cells; format: cell-based; conditions: 10 µM, 1 mM FFA-induced HepG2 cells
Method: Figure S79. Oil red O staining of lipid droplets and quantitative analysis in HepG2 cells treated with or without 1 mM FFA mixed compounds 4, 5, 7, 8, and 12 (10 µM), 400 ×; The images shown about quantitative analysis s of red stained cells are representatives of 3 replicates of each. The values are presented as mean ± SEM. ### p < 0.001, vs. the control group; * p < 0.05, ** p < 0.01, vs. the model group. […]

[5] = test system: FFA-induced HepG2 cells; test: TG secretion assay in FFA-induced HepG2 cells; format: cell-based; conditions: 10 µM, 1 mM FFA-induced HepG2 cells
Method: Figure S78. Effects of compounds (4, 5, 7, 8, and 12) on TG level in FFA-induced HepG2 cells. HepG2 cells were treated with a mixture of 1 mM FFA in the absence o r presence of compounds (4, 5, 7, 8, and 12) at the concentration of 10 µM. The values are presented as mean ± SEM of six independent experiments. ### p < 0.001, vs. the control group; * p < 0.05, ** p < 0.01, vs. the model group. […]

[6] = BRL cells, CCK-8 assay, concentration range 1–500 μM, incubation time (24 h or 48 h) not stated, read-out: IC50

CCN1CC2(COC(=O)c3ccccc3NC(=O)CC(C)C(=O)O)CCC(OC)C34C5CC6C(OC)CC(O)(C5C6OC)C(O)(C(OC)C23)C14 (stereo not shown) [Compound 15, delavaine B]
pIC50 [1]: < 3.30 | TG level (TG secretion, lipid accumulation) [2]: had the effect of inhibiting the lipid accumulation (TG secretion)

CCN1C[C@]2(COC(=O)c3ccccc3N)CC[C@H](OC)[C@]34C1[C@](O)([C@@H](OC)[C@H]23)[C@@]1(O)C[C@H](OC)[C@H]2C[C@@H]4[C@@H]1[C@H]2OC [Compound 11, anthranoyllycoctonine]
pIC50 [1, 6]: 3.30 to 3.52

CCN1CC2(COC)CCC(O)C34C5CC6C(OC)CC7(OCOC7(C(O)C23)C14)C5C6OC (stereo not shown) [Compound 10, uraphine]
pIC50 [1]: < 3.30

CCN1CC2(COC(=O)c3ccccc3NC(=O)C(C)CC(=O)O)CCC(OC)C34C5CC6C(OC)CC(O)(C5C6OC)C(O)(C(OC)C23)C14 (stereo not shown) [Compound 14, shawurensine]
pIC50 [1]: < 3.30 | TG level (TG secretion, lipid accumulation) [2]: had the effect of inhibiting the lipid accumulation (TG secretion)

CCN1CC2(COC)CCC(O)C34C5CC6C(OC)CC(O)(C5C6O)C(O)(C(OC)C23)C14 (stereo not shown) [Compound 9, delcosine]
pIC50 [1]: < 3.30

CCN1CC2(COC)CCC(OC)C34C5CC6C(OC)CC(O)(C5C6O)C(O)(C(OC)C23)C14 (stereo not shown) [Compound 13, browniine]
pIC50 [1]: < 3.30

CCN1C[C@]2(C)CC[C@H](OC)[C@@]34C1[C@@]1(OCO[C@@]15C[C@H](OC)[C@H]1C[C@@H]3[C@@H]5[C@H]1O)[C@@H](O)[C@H]24 [Compound 6, delpheline]
pIC50 [1]: < 3.30

CC(C)c1c(C(=O)Nc2ccccc2)c(-c2ccccc2)c(-c2ccc(F)cc2)n1CC[C@@H](O)C[C@@H](O)CC(=O)O [positive (ATC), Atorvastatin calcium, reference compound]
pIC50 [1, 6]: 4.05

CCN1CC2(COC)CCC(OC)C34C5CC6C(OC)CC7(OCOC7(C(OC)C23)C14)C5C6O (stereo not shown) [Compound 5, delbruline]
pIC50 [1, 6]: < 3.30 | TG level (TG secretion, lipid accumulation) [2]: better than that of the positive control drug | TC level [2]: ameliorated | TG level [2]: ameliorated | ALT level [2]: ameliorated | AST level [2]: ameliorated | inhibitory effects on hepatocytes lipid accumulation [2]: strong inhibitory effects on hepatocytes lipid accumulation in a dose-dependent manner | fold change of red-stained cell area (quantitative analysis of lipid accumulation) [3]: less than the model group | lipid accumulation by oil red O staining [3]: significantly reduce lipid accumulation | lipid accumulation by oil red O evaluation [4]: good inhibitory effects on lipid accumulation | lipid accumulation by TG secretion assay [5]: good inhibitory effects on lipid accumulation

CCN1C[C@]2(CO)CC[C@H](OC)[C@@]34[C@@H]5C[C@H]6[C@H](OC)[C@@H]5[C@](O)(C[C@@H]6OC)[C@](O)([C@@H](OC)[C@H]23)[C@@H]14 [Compound 7, lycoctonine]
pIC50 [1, 6]: < 3.30 | TG level (TG secretion, lipid accumulation) [2]: better than that of the positive control drug | TC level [2]: ameliorated | TG level [2]: ameliorated | ALT level [2]: ameliorated | AST level [2]: ameliorated | inhibitory effects on hepatocytes lipid accumulation [2]: strong inhibitory effects on hepatocytes lipid accumulation in a dose-dependent manner | fold change of red-stained cell area (quantitative analysis of lipid accumulation) [3]: less than the model group | lipid accumulation by oil red O staining [3]: significantly reduce lipid accumulation | lipid accumulation by oil red O evaluation [4]: good inhibitory effects on lipid accumulation | lipid accumulation by TG secretion assay [5]: good inhibitory effects on lipid accumulation

CCN1CC2(COC)CCC(O)C34C5CC6C(OC)CC7(OCOC7(C(OC)C23)C14)C5C6O (stereo not shown) [Compound 8, delbrunine]
pIC50 [1, 6]: 3.39 | TG level (TG secretion, lipid accumulation) [2]: better than that of the positive control drug | TC level [2]: ameliorated | TG level [2]: ameliorated | ALT level [2]: ameliorated | AST level [2]: ameliorated | inhibitory effects on hepatocytes lipid accumulation [2]: strong inhibitory effects on hepatocytes lipid accumulation in a dose-dependent manner | fold change of red-stained cell area (quantitative analysis of lipid accumulation) [3]: less than the model group | lipid accumulation by oil red O staining [3]: significantly reduce lipid accumulation | lipid accumulation by oil red O evaluation [4]: good inhibitory effects on lipid accumulation | lipid accumulation by TG secretion assay [5]: good inhibitory effects on lipid accumulation
